The data set concerns Artemia franciscana. As to the kind of experiment: Toxicity against Artemia franciscana nauplii larvae. Type of data set: organism-based. Conditions: in vivo.

Molecules are shown by their SMILES.

As usually defined, the LC50 is the concentration lethal to half of the exposed cells or organisms. A high value points to a less lethal substance. Take `CN1C(=O)N[C@@]2(O)[C@@H]3NC(=O)c4ccc(Br)n4[C@@H]3C[C@@]12O`: the LC50 is on record as 220 ppm.

Source of the values: ChEMBL document CHEMBL1159203, “Agelastatins C and D, new pentacyclic bromopyrroles from the sponge Cymbastela sp., and potent arthropod toxicity of (-)-agelastatin A” (J Nat Prod, 1998).
